Source: publication PMC3870299, “Comparative genomics and functional analysis of rhamnose catabolic pathways and regulons in bacteria” (Frontiers in Microbiology, 2013)

Legend:
[1] = target: T1, Ca_RhaEW (Chloroflexus aurantiacus, UniProt A9WGG0); assay: coupled NADH detection at […] nm and GC-MS of products; assay type: biochemical; conditions: substrate made in situ from L-Rha by Ec_RhaA and Tm_RhaB, NAD+ 1.4 mM, Zn2+, pH 8, 30-70 C
T1 construct: gene Caur_2283; full-length, N-terminal His6 tag, expressed in E. coli, Ni-NTA purified

[2] = target: T2, Bs_RhaEW (Bacillus subtilis, UniProt P40747); assay: coupled NADH detection at […] nm; assay type: biochemical; conditions: substrate made in situ from L-Rha by Ec_RhaA and Tm_RhaB; NAD+ 2.5 mM; Zn2+; pH 7.5; 25 C
T2 construct: gene yuxG; full-length, N-terminal His6 tag, expressed in E. coli, Ni-NTA purified

[3] = target: T3, RhaR (Chloroflexus aurantiacus, UniProt A9WGG7); assay: EMSA, loss of RhaR-DNA binding; conditions: effector at 2 mM; RhaR 1 uM; pH 8.0; 50 C; L-rhamnulose made enzymatically from L-Rha by Ec_RhaA; Figure 5 legend prints L-rhamnose for this effect (apparent misprint)
T3 construct: gene Caur_2290

[4] = target: T4, St_RhaZ (Salmonella enterica, UniProt Q8ZKS2); assay: coupled NADH oxidation at […] nm; assay type: biochemical; conditions: substrate made in situ by Ec_RhaA, Tm_RhaB and St_RhaD; NADH 0.25 mM; pH 7.5; 25 C; no dehydrogenase activity with NAD+
T4 construct: gene STM4044; full-length, N-terminal His6 tag, expressed in E. coli, Ni-NTA purified
T4 sequence (Q8ZKS2 1-382): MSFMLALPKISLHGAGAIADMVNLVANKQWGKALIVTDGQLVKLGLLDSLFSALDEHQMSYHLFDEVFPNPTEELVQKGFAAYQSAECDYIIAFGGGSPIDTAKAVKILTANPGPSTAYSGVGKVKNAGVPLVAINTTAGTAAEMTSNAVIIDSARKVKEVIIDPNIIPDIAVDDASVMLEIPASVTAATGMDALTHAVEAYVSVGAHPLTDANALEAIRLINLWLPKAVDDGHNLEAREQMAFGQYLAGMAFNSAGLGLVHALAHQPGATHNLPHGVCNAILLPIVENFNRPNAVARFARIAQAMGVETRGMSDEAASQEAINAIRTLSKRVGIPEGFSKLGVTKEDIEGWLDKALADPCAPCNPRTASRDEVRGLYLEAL
Excerpt: St_RhaZ was active under these conditions

[5] = target: T5, RhaR (DeoR family) (Chloroflexus aurantiacus J-10-fl, UniProt A9WGG7 1-260); assay: EMSA; RhaR 0.25-1 uM, no effector; poly(dI-dC); EMSA: 50 mM Tris-HCl pH 8.0, 150 mM NaCl, 5 mM MgCl2, 1 mM DTT (printed DDT), 0.05% NP-40, 2.5% glycerol, 1 ug poly(dI-dC), 0.2 nM DNA, 20 ul, 25 min at 50 C; 1.5% agarose gel at room temperature; conditions: protein: recombinant; tags: His6-Smt3 (SUMO) N-terminal tag, cleaved with Ulp1; blunt
T5 sequence: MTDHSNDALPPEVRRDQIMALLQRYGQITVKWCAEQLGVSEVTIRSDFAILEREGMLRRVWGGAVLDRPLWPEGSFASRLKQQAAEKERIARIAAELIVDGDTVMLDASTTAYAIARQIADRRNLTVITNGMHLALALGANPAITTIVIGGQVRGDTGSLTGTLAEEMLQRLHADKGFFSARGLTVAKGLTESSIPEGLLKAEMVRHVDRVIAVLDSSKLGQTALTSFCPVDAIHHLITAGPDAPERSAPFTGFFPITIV

T1 sequence (A9WGG0 entry or part of it): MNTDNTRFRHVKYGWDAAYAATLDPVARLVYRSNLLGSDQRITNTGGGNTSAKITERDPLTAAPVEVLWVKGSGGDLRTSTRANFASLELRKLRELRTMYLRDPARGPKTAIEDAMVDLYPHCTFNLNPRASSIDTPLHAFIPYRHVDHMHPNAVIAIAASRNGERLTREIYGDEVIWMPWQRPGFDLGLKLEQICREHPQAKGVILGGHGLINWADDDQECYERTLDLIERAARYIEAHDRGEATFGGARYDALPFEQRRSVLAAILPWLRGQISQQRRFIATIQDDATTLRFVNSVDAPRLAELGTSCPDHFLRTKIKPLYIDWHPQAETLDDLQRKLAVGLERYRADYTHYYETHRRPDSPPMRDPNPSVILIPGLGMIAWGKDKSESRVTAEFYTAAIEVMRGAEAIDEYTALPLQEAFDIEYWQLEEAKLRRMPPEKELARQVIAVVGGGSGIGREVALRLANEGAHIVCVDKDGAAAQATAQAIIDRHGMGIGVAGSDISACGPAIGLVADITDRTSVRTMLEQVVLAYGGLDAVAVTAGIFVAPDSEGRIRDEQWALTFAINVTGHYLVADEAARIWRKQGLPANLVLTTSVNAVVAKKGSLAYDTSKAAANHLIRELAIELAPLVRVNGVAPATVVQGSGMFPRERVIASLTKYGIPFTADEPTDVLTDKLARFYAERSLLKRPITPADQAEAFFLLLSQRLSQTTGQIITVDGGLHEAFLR
T2 sequence (P40747 whole entry): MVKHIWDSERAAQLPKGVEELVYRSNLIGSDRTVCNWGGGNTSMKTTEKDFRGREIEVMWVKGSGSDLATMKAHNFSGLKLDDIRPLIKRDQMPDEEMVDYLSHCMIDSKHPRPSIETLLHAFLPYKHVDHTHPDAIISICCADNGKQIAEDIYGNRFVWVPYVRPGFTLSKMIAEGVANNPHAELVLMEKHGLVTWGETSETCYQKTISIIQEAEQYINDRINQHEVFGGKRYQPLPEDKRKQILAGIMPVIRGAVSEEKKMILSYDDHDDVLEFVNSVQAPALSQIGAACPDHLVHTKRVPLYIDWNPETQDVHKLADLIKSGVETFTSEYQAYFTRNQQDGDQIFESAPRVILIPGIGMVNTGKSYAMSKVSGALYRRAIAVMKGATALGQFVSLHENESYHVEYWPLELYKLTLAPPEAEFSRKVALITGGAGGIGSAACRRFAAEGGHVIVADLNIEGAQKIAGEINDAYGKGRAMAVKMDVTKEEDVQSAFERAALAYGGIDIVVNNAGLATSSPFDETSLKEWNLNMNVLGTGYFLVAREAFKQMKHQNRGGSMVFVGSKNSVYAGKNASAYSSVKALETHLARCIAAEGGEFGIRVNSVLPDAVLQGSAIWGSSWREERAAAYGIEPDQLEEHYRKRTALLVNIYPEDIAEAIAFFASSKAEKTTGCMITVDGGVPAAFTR

## C[C@H](O)[C@H](O)[C@@H](O)C(=O)COP(=O)(O)O [L-rhamnulose-1-P]
[1]
  coupled NADH detection at 340 nm and GC-MS of products: Ca_RhaEW acts in vitro to convert L-rhamnulose-1-P to L-lactate and DHAP
[2]
  coupled NADH detection at 340 nm: The Bs_RhaEW protein showed weak, but reproducible activity

## C[C@@H]1OC(O)(CO)[C@H](O)[C@H]1O (stereo partly drawn) [L-rhamnulose]
[3]
  EMSA, loss of RhaR-DNA binding: L-rhamnulose abolished the specific DNA-binding ability of RhaR

## NC(=O)C1=CN([C@@H]2O[C@H](COP(=O)(O)OP(=O)(O)OC[C@H]3O[C@@H](n4cnc5c(N)ncnc54)[C@H](O)[C@@H]3O)[C@@H](O)[C@H]2O)C=CC1 [NADH]
[4]
  coupled NADH oxidation at 340 nm: with the exception of supplying NADH as the cofactor. St_RhaZ was active under these conditions

## NC(=O)c1ccc[n+]([C@@H]2O[C@H](COP(=O)(O)OP(=O)(O)OC[C@H]3O[C@@H](n4cnc5c(N)ncnc54)[C@H](O)[C@@H]3O)[C@@H](O)[C@H]2O)c1 [NAD^+]
[1]; no product without NAD+, no activity with NADH
  coupled NADH detection at 340 nm and GC-MS of products: exclusion of NAD^+ which is an essential cofactor of L-lactaldehyde dehydrogenase
[2]
  coupled NADH detection at 340 nm: the reduction of NAD^+ or oxidation of NADH was monitored

B1: rhaR upstream 48-bp fragment (38-bp RhaR operator) (dsDNA)
DNA 1: GGGGGTTCGTAAAATCTCGTAAGTACTTGACAAATCTTGAAAAGGGGG
DNA 2: CCCCCTTTTCAAGATTTGTCAAGTACTTACGAGATTTTACGAACCCCC
[5]
  binding result: binds
